According to patent publication US20100184684A1, “ANTIBACTERIAL AND ANTIFUNGAL PEPTIDES” (C3 JIAN, INC., priority 2009, published 2010):
≈ marks a conversion by molar mass, not a printed value. Like-named read-outs stand apart in the source and are kept apart here. Each block holds one compound with its values, some of them ahead of it. Peptide text beside a SMILES is read from it.

Columns and labels:
[1] = system: S. epidermidis; assay type: cell-based
Method: (§1) In certain embodiments the MIC assays are performed as described herein in the Examples. For each organism, the media and growth conditions utilized is detailed in Table 8.
(§2) In certain embodiments the MIC assays are performed as follows: For each organism, the media and growth conditions utilized is detailed in Table 8.

[2] = system: MRSA; assay type: cell-based, Staphylococcus aureus
Method: as §1, §2

[3] = system: S. pneumoniae; assay type: cell-based, Streptococcus pneumoniae
Method: as §1, §2

[4] = system: B. subtilis; assay type: cell-based, Bacillus subtilis
Method: as §1, §2

[5] = system: A. niger; assay type: cell-based, Aspergillus niger
Method: as §1, §2

[6] = system: T. rubrum; assay type: cell-based, Trichophyton rubrum
Method: as §1, §2

[7] = S. pneumoniae, TSB supplemented with 5% yeast extract, 37° C., 10% CO2, 10^6 CFU/ml

MIC [1]: 50 µM (≈ 152 µg/mL)
MIC [2]: 50 µM (≈ 152 µg/mL)
SMILES: CC[C@H](C)[C@H](NC(=O)[C@H](CC(N)=O)NC(=O)[C@@H](NC(=O)[C@H](Cc1ccccc1)NC(=O)[C@H](CCC(=O)O)NC(=O)CNC(=O)[C@H](CCC(N)=O)NC(=O)[C@H](Cc1ccccc1)NC(=O)[C@@H](N)CCCCN)[C@@H](C)O)C(=O)NCC(=O)N[C@@H](CCC(N)=O)C(=O)N[C@@H](CO)C(=O)N[C@@H](Cc1ccc(O)cc1)C(=O)N[C@H](C(=O)N[C@H](C(=O)N[C@@H](CO)C(=O)N[C@@H](C)C(=O)N[C@@H](CO)C(=O)N[C@@H](Cc1c[nH]cn1)C(=O)N[C@@H](CCSC)C(=O)N[C@@H](CO)C(=O)N[C@H](C(=O)N[C@@H](CO)C(=O)N[C@@H](CC(C)C)C(=O)N[C@@H](CC(N)=O)C(=O)N[C@H](C(=O)NCC(=O)N[C@@H](CCCCN)C(=O)O)[C@@H](C)O)[C@@H](C)O)C(C)C)[C@@H](C)CC [PF-583] (H-KFQGEFTNIGQSYIVSASHMSTSLNTGK-OH; N-terminus and C-terminus assumed)

SMILES: CC[C@H](C)[C@H](NC(=O)[C@H](CCC(=O)O)NC(=O)[C@@H]1CCCN1C(=O)[C@H](CCSC)NC(=O)[C@H](Cc1ccccc1)NC(=O)[C@@H](N)CO)C(=O)N[C@@H](CCC(N)=O)C(=O)N[C@@H](CCCCN)C(=O)N[C@@H](CC(N)=O)C(=O)N[C@H](C(=O)N[C@H](C(=O)N1CCC[C@H]1C(=O)N[C@H](C(=O)N[C@@H](CCC(N)=O)C(=O)N[C@@H](CCSC)C(=O)N[C@@H](CCCCN)C(=O)O)[C@@H](C)O)[C@@H](C)CC)[C@@H](C)O [PF-512] (H-SFMPEIQKNTIPTQMK-OH; N-terminus and C-terminus assumed)
MIC [3, 7]: 50 µM (≈ 94.7 µg/mL)

MIC [4]: 50 µM (≈ 136 µg/mL)
SMILES: CC[C@H](C)[C@H](NC(=O)[C@H](Cc1ccccc1)NC(=O)[C@@H](NC(=O)[C@H](Cc1ccccc1)NC(=O)[C@H](CC(C)C)NC(=O)[C@H](CC(=O)O)NC(=O)[C@@H](NC(=O)[C@H](CS)NC(=O)[C@@H](NC(=O)[C@H](CCCNC(=N)N)NC(=O)[C@H](CC(C)C)NC(=O)[C@@H](NC(=O)[C@@H](N)CC(C)C)C(C)C)[C@@H](C)CC)[C@@H](C)O)[C@@H](C)O)C(=O)N[C@@H](CCCCN)C(=O)N[C@@H](Cc1c[nH]c2ccccc12)C(=O)N[C@H](C(=O)N[C@H](C(=O)N[C@@H](CCCCN)C(=O)N[C@@H](CCC(N)=O)C(=O)N[C@@H](CCCNC(=N)N)C(=O)N[C@@H](CCCCN)C(=O)N[C@@H](CO)C(=O)O)[C@@H](C)CC)[C@@H](C)O [PF-497] (H-LVLRICTDLFTFIKWTIKQRKS-OH; N-terminus and C-terminus assumed)

MIC [2]: 50 µM (≈ 44.5 µg/mL)
SMILES: CC(C)[C@H](NC(=O)[C@H](C)NC(=O)[C@H](Cc1ccc(O)cc1)NC(=O)[C@@H](N)CC(N)=O)C(=O)N[C@H](C(=O)N[C@@H](CO)C(=O)N[C@@H](Cc1c[nH]cn1)C(=O)N[C@H](C(=O)O)[C@@H](C)O)C(C)C [PF-209] (H-NYAVVSHT-OH; N-terminus and C-terminus assumed)

MIC [3]: 50 µM (≈ 161 µg/mL)
SMILES: CC(C)C[C@H](NC(=O)[C@H](CC(C)C)NC(=O)[C@H](Cc1c[nH]cn1)NC(=O)[C@H](CC(N)=O)NC(=O)[C@H](CCCCN)NC(=O)[C@H](CC(C)C)NC(=O)[C@H](CO)NC(=O)[C@H](CCCNC(=N)N)NC(=O)[C@H](CO)NC(=O)[C@H](C)NC(=O)[C@H](CCC(N)=O)NC(=O)[C@H](CCCCN)NC(=O)[C@H](CO)NC(=O)[C@H](C)NC(=O)[C@H](CCC(N)=O)NC(=O)[C@H](CCCCN)NC(=O)[C@H](CO)NC(=O)[C@H](C)NC(=O)[C@H](CCC(N)=O)NC(=O)[C@H](CCCCN)NC(=O)[C@H](CO)NC(=O)[C@H](C)NC(=O)[C@H](CCC(N)=O)NC(=O)[C@H](CCCCN)NC(=O)[C@H](CO)NC(=O)[C@H](C)NC(=O)[C@H](CCC(N)=O)NC(=O)[C@H](CCCCN)NC(=O)[C@H](CO)NC(=O)[C@H](C)N)C(=O)O [PF-523] (H-ASKQASKQASKQASKQASKQASRSLKNHLL-OH; N-terminus and C-terminus assumed)

MIC [5]: 25 µM (≈ 43 µg/mL)
MIC [3]: 50 µM (≈ 85.9 µg/mL)
SMILES: CC(C)C[C@H](NC(=O)[C@H](CCC(N)=O)NC(=O)[C@H](CO)NC(=O)[C@H](CCC(N)=O)NC(=O)[C@H](CC(C)C)NC(=O)[C@@H](N)CO)C(=O)NCC(=O)N1CCC[C@H]1C(=O)N[C@@H](CS)C(=O)N[C@@H](CC(C)C)C(=O)N[C@@H](Cc1c[nH]cn1)C(=O)N[C@@H](CC(=O)O)C(=O)N[C@@H](CCC(N)=O)C(=O)N[C@@H](CCCNC(=N)N)C(=O)N[C@@H](Cc1c[nH]cn1)C(=O)O [PF-448] (H-SLQSQLGPCLHDQRH-OH; N-terminus and C-terminus assumed)

MIC [4]: 50 µM (≈ 161 µg/mL)
MIC [5]: 50 µM (≈ 161 µg/mL)
SMILES: CSCC[C@H](NC(=O)[C@H](CCCNC(=N)N)NC(=O)[C@H](CCCNC(=N)N)NC(=O)[C@H](CC(C)C)NC(=O)[C@H](CCCNC(=N)N)NC(=O)[C@H](CCC(=O)O)NC(=O)[C@@H](NC(=O)[C@H](CS)NC(=O)CNC(=O)[C@H](CCCNC(=N)N)NC(=O)[C@@H](N)CCCNC(=N)N)[C@@H](C)O)C(=O)N[C@@H](C)C(=O)N[C@@H](CCCNC(=N)N)C(=O)N[C@@H](CCCNC(=N)N)C(=O)N[C@@H](CC(N)=O)C(=O)N[C@@H](C)C(=O)N[C@@H](Cc1c[nH]c2ccccc12)C(=O)N[C@@H](CC(=O)O)C(=O)N[C@@H](CC(C)C)C(=O)N[C@@H](Cc1ccc(O)cc1)C(=O)N[C@@H](C)C(=O)N[C@@H](CCC(=O)O)C(=O)N[C@@H](Cc1c[nH]cn1)C(=O)N[C@@H](Cc1ccccc1)C(=O)N[C@@H](Cc1ccc(O)cc1)C(=O)O [PF-148] (H-RRGCTERLRRMARRNAWDLYAEHFY-OH; N-terminus and C-terminus assumed)

MIC [4]: 25 µM (≈ 49 µg/mL)
MIC [5]: 50 µM (≈ 98 µg/mL)
MIC [2]: 50 µM (≈ 98 µg/mL)
SMILES: CC[C@H](C)[C@H](NC(=O)[C@H](CCCNC(=N)N)NC(=O)[C@H](CCCNC(=N)N)NC(=O)[C@H](CCCNC(=N)N)NC(=O)[C@@H](NC(=O)[C@H](CCSC)NC(=O)[C@H](CC(=O)O)NC(=O)[C@H](C)NC(=O)[C@H](CCSC)NC(=O)[C@H](C)NC(=O)[C@@H](NC(=O)[C@H](CC(C)C)NC(=O)[C@H](CCCCN)NC(=O)[C@H](CO)NC(=O)[C@H](CCC(=O)O)NC(=O)[C@@H](N)CCCNC(=N)N)[C@@H](C)CC)[C@@H](C)CC)C(=O)O [PF-545] (H-RESKLIAMADMIRRRI-OH; N-terminus and C-terminus assumed)

SMILES: CC[C@H](C)[C@H](NC(=O)[C@H](CC(C)C)NC(=O)[C@@H]1CCCN1C(=O)[C@@H]1CCCN1C(=O)[C@H](CCCCN)NC(=O)[C@@H](NC(=O)[C@H](Cc1ccc(O)cc1)NC(=O)[C@H](CC(C)C)NC(=O)[C@H](CO)NC(=O)[C@H](CCC(N)=O)NC(=O)[C@H](CCSC)NC(=O)[C@@H](N)C(C)C)C(C)C)C(=O)N[C@@H](CC(C)C)C(=O)N[C@H](C(=O)N[C@H](C(=O)N[C@@H](CCCCN)C(=O)N[C@@H](CC(C)C)C(=O)N[C@@H](C)C(=O)N[C@@H](CCC(N)=O)C(=O)N[C@@H](CCC(N)=O)C(=O)N[C@@H](CC(N)=O)C(=O)O)[C@@H](C)O)C(C)C [PF-511] (H-VMQSLYVKPPLILVTKLAQQN-OH; N-terminus and C-terminus assumed)
MIC [3, 7]: 50 µM (≈ 119 µg/mL)

MIC [6]: 50 µM (≈ 156 µg/mL)
MIC [5]: 50 µM (≈ 156 µg/mL)
MIC [2]: 50 µM (≈ 156 µg/mL)
SMILES: CC[C@H](C)[C@H](NC(=O)[C@H](C)NC(=O)[C@@H]1CCCN1C(=O)[C@H](Cc1ccccc1)NC(=O)[C@@H]1CCCN1C(=O)[C@H](CC(C)C)NC(=O)[C@@H](N)C(C)C)C(=O)N1CCC[C@H]1C(=O)N[C@@H](CC(C)C)C(=O)N[C@@H](CO)C(=O)N[C@@H](CCCNC(=N)N)C(=O)N[C@@H](CCCNC(=N)N)C(=O)N[C@@H](CCCNC(=N)N)C(=O)N[C@@H](C)C(=O)N[C@@H](CS)C(=O)N[C@H](C(=O)N[C@@H](C)C(=O)N[C@@H](C)C(=O)N1CCC[C@H]1C(=O)N[C@@H](CCCNC(=N)N)C(=O)N1CCC[C@H]1C(=O)N[C@@H](CCCNC(=N)N)C(=O)N[C@@H](CO)C(=O)N[C@@H](CCCNC(=N)N)C(=O)N[C@@H](CCC(N)=O)C(=O)N[C@@H](CCCNC(=N)N)C(=O)N[C@@H](C)C(=O)N[C@@H](CO)C(=O)O)C(C)C [PF-168] (H-VLPFPAIPLSRRRACVAAPRPRSRQRAS-OH; N-terminus and C-terminus assumed)

MIC [5]: 50 µM (≈ 85.1 µg/mL)
MIC [3]: 50 µM (≈ 85.1 µg/mL)
SMILES: CSCC[C@H](NC(=O)[C@H](CCC(=O)O)NC(=O)[C@H](CO)NC(=O)[C@@H](N)CC(C)C)C(=O)N[C@@H](CCC(=O)O)C(=O)N[C@@H](CCCNC(=N)N)C(=O)N[C@@H](CCCNC(=N)N)C(=O)N[C@@H](CCCNC(=N)N)C(=O)N[C@@H](CC(C)C)C(=O)N[C@@H](CCCNC(=N)N)C(=O)N[C@@H](CCCCN)C(=O)N[C@@H](CCCNC(=N)N)C(=O)N[C@@H](C)C(=O)O [PF-529] (H-LSEMERRRLRKRA-OH; N-terminus and C-terminus assumed)

SMILES: CC(C)C[C@H](NC(=O)CNC(=O)[C@@H](N)CC(C)C)C(=O)N[C@H](C(=O)N[C@@H](C)C(=O)NCC(=O)N[C@H](C(=O)N[C@@H](C)C(=O)N[C@@H](Cc1ccc(O)cc1)C(=O)N[C@@H](C)C(=O)N[C@@H](C)C(=O)N[C@@H](CCC(N)=O)C(=O)N1CCC[C@H]1C(=O)N[C@H](C(=O)N[C@@H](CC(N)=O)C(=O)N[C@@H](CCC(N)=O)C(=O)N1CCC[C@H]1C(=O)N[C@H](C(=O)N[C@@H](CC(N)=O)C(=O)N[C@@H](CCC(N)=O)C(=O)N1CCC[C@H]1C(=O)N[C@H](C(=O)N[C@@H](CC(N)=O)C(=O)N[C@@H](CCC(N)=O)C(=O)N1CCC[C@H]1C(=O)N[C@H](C(=O)N[C@@H](CC(N)=O)C(=O)N[C@@H](CCC(N)=O)C(=O)N1CCC[C@H]1C(=O)N[C@H](C(=O)N[C@@H](CC(N)=O)C(=O)N[C@@H](CCC(N)=O)C(=O)N1CCC[C@H]1C(=O)N[C@H](C(=O)N[C@@H](CC(N)=O)C(=O)N[C@@H](CCC(N)=O)C(=O)N1CCC[C@H]1C(=O)N[C@@H](CCCNC(=N)N)C(=O)N[C@@H](Cc1c[nH]c2ccccc12)C(=O)O)[C@@H](C)O)[C@@H](C)O)[C@@H](C)O)[C@@H](C)O)[C@@H](C)O)[C@@H](C)O)C(C)C)[C@@H](C)O [PF-520] (H-LGLTAGVAYAAQPTNQPTNQPTNQPTNQPTNQPTNQPRW-OH; N-terminus and C-terminus assumed)
MIC [3, 7]: 50 µM (≈ 211 µg/mL)
